# Measured values as given in US11674967B2, “Method of identifying potential inhibitors of APO TNFα trimers” (UCB BIOPHARMA SRL, priority 2015, dated 2023).
# Columns and labels:
# TNFα [1] = biological target: T1, TNFα (Homo sapiens, UniProt P01375); test: LC-MS of size exclusion fractions of TNFα, TNF-R and compound; assay type: binding; design: purchased R&D Systems; conditions: either order of addition
# Description: Fractions from size exclusion chromatographic separation of mixtures of TNFα, TNF-R and the compound of formula (3) were analysed by liquid chromatography-mass spectrometry (LC-MS). Two samples were prepared for size exclusion chromatography.
# Target sequence in this assay (P01375 77-233 limits assumed): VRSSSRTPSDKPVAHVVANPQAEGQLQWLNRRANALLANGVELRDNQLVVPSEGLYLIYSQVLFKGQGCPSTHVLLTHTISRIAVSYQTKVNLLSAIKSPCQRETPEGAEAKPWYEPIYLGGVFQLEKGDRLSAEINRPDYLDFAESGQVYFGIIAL
# Target sequence in this assay (P19438 30-211 partner limits assumed): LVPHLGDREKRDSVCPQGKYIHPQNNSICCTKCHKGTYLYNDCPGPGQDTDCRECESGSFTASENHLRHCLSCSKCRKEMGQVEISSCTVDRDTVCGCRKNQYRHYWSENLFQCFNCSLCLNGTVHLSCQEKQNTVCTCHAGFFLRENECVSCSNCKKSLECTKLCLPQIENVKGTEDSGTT
# [2] = tested on: hTNFα-induced neutrophil recruitment; test: Neutrophil recruitment in mice, compound given orally before hTNFα i.p.; assay type: in vivo, Balb/c mice
# Description: In a further experiment, mice were treated with hTNFα (0.3 μg/ml) and the compound of formula (3) was administered orally (p.o.).
# The compound of formula (3) was made into a suspension in 1% methylcellulose vehicle using a covaris machine.
# An anti-human TNFα monoclonal antibody (anti-hTNFα, UCB) was also utilised as a positive control in this study.
# Ten male Balb/c mice were used per group except in the group that received anti-hTNFα for which 4 mice were used.
# Mice received 100 μL of either vehicle (1% methylcellulose) or compound of formula (3) at 30 mg/kg or 100 mg/kg p.o. 30 minutes (t=−30) or anti-hTNFα at 10 mg/kg i.p. 5 minutes (t=−5) prior to being injected with human TNFα.
# All mice were killed by cervical dislocation two hours post-injection of hTNFα (t=2 h) and the peritoneal cavity was lavaged and neutrophil numbers measured as described above.
# TNFα [3] = biological target: T1, TNFα; test: Mass spectrometric analysis of compound binding to TNFα (soft ionisation)
# Description: Mass spectrometry was typically performed using a Waters LCT-premier Time-of-Flight mass spectrometer or a Waters SynaptG2 Q-TOF mass spectrometer. Samples were introduced using an Advion Triversa Nanomate nanoflow infusion device which replaces the conventional spectrometer source, sample injection was via an “A” series chip with […] nozzle size at a nominal flow rate of 100 nl/min. Further modifications to the Waters LCT-premier Time-of-Flight mass spectrometer include a customised source cooling device allowing precise control of the source temperature and a commercial pressure regulation device giving precise control over the vacuum conditions in the source region. Together these modifications help retain the TNFα trimer in a native, folded conformation and facilitate the detection of complexes formed with test compounds of weak affinities.
# Ions were generated using standard positive ion electrospray conditions resulting in multiple charging of TNFα.
# Mass spectrometry is very sensitive to the buffer salts present in the protein sample. Typical buffer salts such as potassium or sodium phosphates have a severely detrimental affect on ionisation. Accordingly protein samples were pre-treated to remove these salts using a Zeba desalt spin column, the protein being exchanged into a mass spectrometry compatible buffer system, typically 50 mM Ammonium Acetate at pH 6.8.
# Typically the test compounds were presented as 10 mM DMSO stock solutions such that when they are incubated with TNFα in solution the final DMSO concentration is 5%. […] This is evidenced by the changes in the number of charges acquired by the protein under the various conditions described.
# Test compounds were prepared as 10 mM solutions in dimethylsulphoxide (DMSO). Therefore, it was necessary to establish the effect of DMSO on the native TNFα trimer in the absence of a test compound. […]
# Incubation of a library of test compounds, including the compound of formula (3) with TNFα was monitored by mass spectrometry under soft ionization conditions. […]
# Target sequence in this assay (P01375 77-233 limits assumed): as the sequence (P01375 77-233 limits assumed) above
# TNFα [4] = biological target: T1, TNFα; test: Surface plasmon resonance kinetics of compound binding to immobilised TNFα
# Description: Surface plasmon resonance was used to measure the association rate, the dissociation rate and the affinity of the compounds of formulae (3) and (15) for TNFα (FIGS. 12A and B). For the purpose of this study a Biacore T100/T200 was used.
# TNFα was immobilised at pH5 to a level of 5-8 KRU onto a CMS sensor in HBS-P buffer (10 mM HEPES pH 7.4, 0.15 M NaCl, 0.005% Surfactant P20, BIAcore, GE Healthcare). The TNFα was then equilibrated in HBS-P with 5% DMSO for at least 5 hours. The samples were diluted from 10 mM stocks into DMSO matched buffer and left to solubilise for at least 5 hours. The flow rate was […].
# This assay was performed by adding 4 or 5 concentrations of compound starting from a highest concentration of 25 μM for compound of formula (3) and 1 μM for compound of formula (15) and then serially diluting this sample. Background subtraction binding curves were analysed using the BIAevaluation software following standard procedures. Binding, affinity and kinetic parameters were determined using Biacore software. The kinetic data were fitted using the levenberg marquardt algorithm.
# Target sequence in this assay (P01375 77-233 limits assumed): as above
# [5] = tested on: TNFα-induced NF-κB activation; test: HEK-Blue CD40L NF-κB reporter gene assay, TNFα stimulus; assay type: cell-based; conditions: TNFα 0.5 ng/mL
# Description: Stimulation of HEK-293 cells by TNF-alpha leads to activation of the NF-kB pathway. The reporter cell line used to determine TNF alpha activity was purchased from Invivogen. HEK-Blue™ CD40L, is a stable transfectant expressing SEAP (secreted alkaline phosphatase) under the control of the IFN-beta minimal promoter fused to 5 NF-kB binding sites. Secretion of SEAP by these cells is stimulated in a concentration dependent manner by TNF-alpha (0.5 ng/ml), IL-1-beta (0.5 ng/ml) and an activating anti-human TNFR1 antibody (300 ng/ml).
# Compounds were diluted from 10 mM DMSO stocks (final assay concentration 0.3%) to generate a 10 point 3 fold serial dilution curve (30,000 nM to 2 nM final concentration). They were mixed with stimulating ligand for 1 hour in a 384 well microtitre plate. […] SEAP activity was determined in the supernatant using the colorimetric substrate Quanti-Blue™ (Invivogen).
# Percentage inhibitions for compound dilutions were calculated between a DMSO control and maximum inhibition (by excess control compound) and an IC50 calculated using xlfit (4 parameter logistic model) in Activity Base.
# C87 was preincubated with TNFα for 1 hour prior to the addition to HEK-293 cells stably transfected with SEAP under the control of NFκB. […] The assay was incubated overnight before inhibition was measured compared to 100% blocking by a control compound. […]
smiles,measurement,setting,value
Cc1ccc(C)c(Cn2c(C(O)c3ccncc3)nc3ccccc32)c1 (stereo not drawn) [Compound 3],binding to TNFα in the presence of TNF-R,TNFα [1],binds to TNFα even in the presence of TNF-R
same,reduction of TNFα stimulated neutrophil recruitment into the peritoneal cavity,[2]; 30 mg/kg p.o.,49%
same,reduction of TNFα stimulated neutrophil recruitment into the peritoneal cavity,[2]; 100 mg/kg p.o.,79%
same,effect on trimeric TNFα (charge state envelope),TNFα [3]; 5% v/v DMSO,stabilization of the trimeric TNFα complex
same,binding to the monomeric form of TNFα,TNFα [3]; soft ionization,not observed to bind
same,stoichiometry of binding,TNFα [3]; soft ionization,one molecule of the compound of formula (3) per TNFα trimer
same,dissociation rate constant (koff),TNFα [4],9.46 e^−5 s^−1
same,kon,TNFα [4],2.668 e^3 M^−1 s^−1
Cc1ccc(C)c(Cn2c(C(O)c3ccncc3)nc3ccc(-c4cnn(C)c4)cc32)c1 (stereo not drawn) [Compound 15],IC50,[5],0.113 µM
